{"source": "paper PMC5725665", "about": "“Discovery of a Highly Selective Cell‐Active Inhibitor of the Histone Lysine Demethylases KDM2/7” (Angewandte Chemie (International Ed. in English), 2017)", "key": {"[1]": {"molecular_target": "T1, KDM7A (Homo sapiens, UniProt Q6ZMT4)", "T1 construct": "isolated enzyme", "T1 sequence (Q6ZMT4 1-941)": "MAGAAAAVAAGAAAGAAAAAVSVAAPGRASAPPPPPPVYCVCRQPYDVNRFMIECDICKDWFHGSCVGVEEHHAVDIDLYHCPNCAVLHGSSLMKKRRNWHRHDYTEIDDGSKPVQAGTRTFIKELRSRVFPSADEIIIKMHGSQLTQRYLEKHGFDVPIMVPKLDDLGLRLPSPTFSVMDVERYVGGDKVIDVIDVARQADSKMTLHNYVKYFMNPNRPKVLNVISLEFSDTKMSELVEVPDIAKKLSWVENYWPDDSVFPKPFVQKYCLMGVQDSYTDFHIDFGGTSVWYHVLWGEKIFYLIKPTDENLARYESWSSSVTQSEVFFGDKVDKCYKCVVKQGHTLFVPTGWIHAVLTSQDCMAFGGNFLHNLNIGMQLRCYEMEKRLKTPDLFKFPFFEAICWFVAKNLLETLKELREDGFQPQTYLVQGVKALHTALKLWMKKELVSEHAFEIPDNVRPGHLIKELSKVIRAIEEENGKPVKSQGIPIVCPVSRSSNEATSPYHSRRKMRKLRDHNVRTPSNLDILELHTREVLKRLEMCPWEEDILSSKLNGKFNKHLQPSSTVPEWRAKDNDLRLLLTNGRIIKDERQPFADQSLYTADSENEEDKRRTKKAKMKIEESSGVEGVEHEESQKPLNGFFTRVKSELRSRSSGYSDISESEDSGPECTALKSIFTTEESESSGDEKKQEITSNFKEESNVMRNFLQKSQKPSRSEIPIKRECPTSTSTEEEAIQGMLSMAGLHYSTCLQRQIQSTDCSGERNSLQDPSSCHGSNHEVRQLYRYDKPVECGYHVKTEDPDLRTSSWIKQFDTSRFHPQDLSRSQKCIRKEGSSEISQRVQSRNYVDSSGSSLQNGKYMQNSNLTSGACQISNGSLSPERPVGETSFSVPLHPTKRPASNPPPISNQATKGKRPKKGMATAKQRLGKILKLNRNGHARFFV", "experiment": "AlphaScreen demethylase assay", "assay_type": "biochemical"}, "[2]": {"molecular_target": "CHD1 (Homo sapiens, UniProt O14646)", "sequence (O14646 whole entry, the tested form may be a part)": "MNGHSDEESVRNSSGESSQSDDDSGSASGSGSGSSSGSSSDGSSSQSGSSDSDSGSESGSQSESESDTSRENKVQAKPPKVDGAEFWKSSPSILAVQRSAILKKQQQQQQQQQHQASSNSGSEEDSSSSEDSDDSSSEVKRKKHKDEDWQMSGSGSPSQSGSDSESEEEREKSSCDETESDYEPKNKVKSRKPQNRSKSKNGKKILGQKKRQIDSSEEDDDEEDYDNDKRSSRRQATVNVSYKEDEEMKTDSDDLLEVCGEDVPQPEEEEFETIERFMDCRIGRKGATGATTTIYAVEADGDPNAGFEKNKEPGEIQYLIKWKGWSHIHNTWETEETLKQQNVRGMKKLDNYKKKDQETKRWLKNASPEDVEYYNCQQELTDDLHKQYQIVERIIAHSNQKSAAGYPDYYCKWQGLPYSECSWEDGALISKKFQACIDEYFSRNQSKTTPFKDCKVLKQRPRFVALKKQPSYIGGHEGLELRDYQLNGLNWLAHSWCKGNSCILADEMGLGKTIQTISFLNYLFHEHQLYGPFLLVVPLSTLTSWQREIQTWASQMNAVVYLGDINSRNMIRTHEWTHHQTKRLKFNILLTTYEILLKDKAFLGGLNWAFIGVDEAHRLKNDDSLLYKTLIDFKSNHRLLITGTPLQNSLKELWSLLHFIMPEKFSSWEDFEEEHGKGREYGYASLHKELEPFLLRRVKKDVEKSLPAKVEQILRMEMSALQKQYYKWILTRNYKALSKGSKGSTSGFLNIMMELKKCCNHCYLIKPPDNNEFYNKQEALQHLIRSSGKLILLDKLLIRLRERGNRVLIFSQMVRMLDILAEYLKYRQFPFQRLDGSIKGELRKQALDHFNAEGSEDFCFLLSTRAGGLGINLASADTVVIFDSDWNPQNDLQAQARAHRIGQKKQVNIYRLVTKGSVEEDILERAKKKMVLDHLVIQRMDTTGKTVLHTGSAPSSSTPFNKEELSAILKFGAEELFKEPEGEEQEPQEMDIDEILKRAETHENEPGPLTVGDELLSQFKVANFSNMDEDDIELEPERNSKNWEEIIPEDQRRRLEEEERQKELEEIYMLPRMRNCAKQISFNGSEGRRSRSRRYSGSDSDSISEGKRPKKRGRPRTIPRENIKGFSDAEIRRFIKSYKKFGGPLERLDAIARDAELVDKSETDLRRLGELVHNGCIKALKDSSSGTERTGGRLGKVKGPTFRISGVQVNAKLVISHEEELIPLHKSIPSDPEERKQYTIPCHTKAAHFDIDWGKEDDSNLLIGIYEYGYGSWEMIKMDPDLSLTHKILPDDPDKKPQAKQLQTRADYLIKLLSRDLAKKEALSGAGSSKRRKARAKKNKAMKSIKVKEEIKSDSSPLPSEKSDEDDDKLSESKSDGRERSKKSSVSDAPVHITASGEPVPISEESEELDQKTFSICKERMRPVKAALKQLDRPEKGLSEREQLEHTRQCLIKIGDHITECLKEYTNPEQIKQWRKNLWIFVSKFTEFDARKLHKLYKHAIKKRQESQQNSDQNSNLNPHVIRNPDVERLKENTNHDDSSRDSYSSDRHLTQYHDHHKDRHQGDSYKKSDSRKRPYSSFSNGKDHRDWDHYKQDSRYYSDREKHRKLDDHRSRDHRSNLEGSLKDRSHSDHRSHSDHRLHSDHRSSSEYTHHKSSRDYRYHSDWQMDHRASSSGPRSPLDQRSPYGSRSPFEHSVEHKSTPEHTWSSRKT", "experiment": "biochemical", "parameters": "AlphaScreen peptide displacement assay, methyl-lysine reader domains", "conditions": "read-out: IC50 reader domains, AlphaScreen", "description": "(§1) S106 1.76 1.63 2.01 133 2.78 6.13 6.23 3.55 2.63 1.75 1.31 Table S-3: Summary of indoles tested. IC50 values correspond to KDM2A inhibition by AlphaScreen. 3.2 Selectivity-screening against other epigenetic writer and reader proteins Methyl-Lysine Reader domain assays. Fluorescence polarisation assays for methyl-lysine reader domains were carried out as described. AlphaScreen peptide displacement assays were performed according to manufacturer’s protocol (PerkinElmer, USA) with minor modifications. All reagents were diluted in 25 mM HEPES, 100 mM NaCl, 0.1 % BSA, pH 7.4 and 0.05 % CHAPS and allowed to equilibrate to room temperature prior to addition to plates. An 11-point 1:2.0"}, "[3]": {"molecular_target": "T2, KDM7B PHD-finger domain (Homo sapiens, UniProt Q9UPP1)", "T2 construct": "gene PHF8; PHD-finger domain", "T2 sequence (Q9UPP1 whole entry, the tested form may be a part)": "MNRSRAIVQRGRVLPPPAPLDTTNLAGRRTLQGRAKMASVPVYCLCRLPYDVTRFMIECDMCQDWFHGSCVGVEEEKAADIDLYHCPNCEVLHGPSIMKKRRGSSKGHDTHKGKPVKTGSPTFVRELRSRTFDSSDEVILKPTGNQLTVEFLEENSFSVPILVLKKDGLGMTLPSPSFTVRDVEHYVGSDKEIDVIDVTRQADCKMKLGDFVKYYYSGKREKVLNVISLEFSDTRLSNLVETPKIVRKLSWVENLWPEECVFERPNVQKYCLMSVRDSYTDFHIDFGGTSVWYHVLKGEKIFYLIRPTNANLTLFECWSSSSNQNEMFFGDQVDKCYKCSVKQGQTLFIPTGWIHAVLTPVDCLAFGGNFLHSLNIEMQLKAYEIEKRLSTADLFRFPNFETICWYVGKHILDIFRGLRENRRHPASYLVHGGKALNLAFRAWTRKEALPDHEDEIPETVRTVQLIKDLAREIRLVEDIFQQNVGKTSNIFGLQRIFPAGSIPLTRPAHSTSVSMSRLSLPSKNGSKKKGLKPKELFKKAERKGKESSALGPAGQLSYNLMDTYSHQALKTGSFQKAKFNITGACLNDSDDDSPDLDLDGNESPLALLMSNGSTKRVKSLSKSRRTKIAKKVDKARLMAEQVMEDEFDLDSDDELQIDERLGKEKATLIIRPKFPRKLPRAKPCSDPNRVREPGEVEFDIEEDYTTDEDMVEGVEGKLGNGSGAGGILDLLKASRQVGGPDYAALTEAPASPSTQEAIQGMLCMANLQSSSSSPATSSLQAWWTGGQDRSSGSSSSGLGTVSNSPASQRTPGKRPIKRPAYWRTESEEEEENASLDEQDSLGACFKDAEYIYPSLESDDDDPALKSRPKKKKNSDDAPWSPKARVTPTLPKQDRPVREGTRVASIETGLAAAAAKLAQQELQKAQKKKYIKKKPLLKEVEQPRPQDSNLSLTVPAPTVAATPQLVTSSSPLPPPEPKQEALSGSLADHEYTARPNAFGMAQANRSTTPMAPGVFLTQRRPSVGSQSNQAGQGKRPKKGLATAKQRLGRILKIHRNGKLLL", "experiment": "biochemical", "parameters": "AlphaScreen peptide displacement assay, methyl-lysine reader domains", "conditions": "read-out: IC50 reader domains, AlphaScreen", "description": "as §1"}, "[4]": {"molecular_target": "T3, SGF29 (Homo sapiens, UniProt Q96ES7)", "T3 sequence (Q96ES7 1-293)": "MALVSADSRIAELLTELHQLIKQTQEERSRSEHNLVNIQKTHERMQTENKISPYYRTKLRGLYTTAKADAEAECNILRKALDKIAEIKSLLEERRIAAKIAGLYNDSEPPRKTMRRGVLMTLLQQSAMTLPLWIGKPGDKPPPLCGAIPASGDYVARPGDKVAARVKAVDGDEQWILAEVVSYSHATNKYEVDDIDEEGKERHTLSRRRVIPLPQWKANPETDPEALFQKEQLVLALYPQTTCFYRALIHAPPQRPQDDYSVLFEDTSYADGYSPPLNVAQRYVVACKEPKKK", "experiment": "biochemical", "parameters": "AlphaScreen peptide displacement assay, methyl-lysine reader domains", "conditions": "read-out: IC50 reader domains, AlphaScreen", "description": "as §1"}, "[5]": {"molecular_target": "SPIN1 (Homo sapiens, UniProt Q9Y657)", "sequence (Q9Y657 whole entry, the tested form may be a part)": "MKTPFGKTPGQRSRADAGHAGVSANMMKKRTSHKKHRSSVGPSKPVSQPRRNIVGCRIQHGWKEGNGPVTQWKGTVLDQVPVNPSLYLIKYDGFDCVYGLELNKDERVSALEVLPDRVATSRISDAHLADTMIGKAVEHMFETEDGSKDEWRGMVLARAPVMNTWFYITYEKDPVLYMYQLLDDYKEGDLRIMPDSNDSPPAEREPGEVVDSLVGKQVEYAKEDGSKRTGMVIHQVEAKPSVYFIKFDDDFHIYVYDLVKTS", "experiment": "biochemical", "parameters": "AlphaScreen peptide displacement assay, methyl-lysine reader domains", "conditions": "read-out: IC50 reader domains, AlphaScreen", "description": "as §1"}, "[6]": {"molecular_target": "T4, KDM4A Tudor domain (Homo sapiens, UniProt O75164)", "T4 construct": "Tudor domain", "T4 sequence (O75164 1-1064)": "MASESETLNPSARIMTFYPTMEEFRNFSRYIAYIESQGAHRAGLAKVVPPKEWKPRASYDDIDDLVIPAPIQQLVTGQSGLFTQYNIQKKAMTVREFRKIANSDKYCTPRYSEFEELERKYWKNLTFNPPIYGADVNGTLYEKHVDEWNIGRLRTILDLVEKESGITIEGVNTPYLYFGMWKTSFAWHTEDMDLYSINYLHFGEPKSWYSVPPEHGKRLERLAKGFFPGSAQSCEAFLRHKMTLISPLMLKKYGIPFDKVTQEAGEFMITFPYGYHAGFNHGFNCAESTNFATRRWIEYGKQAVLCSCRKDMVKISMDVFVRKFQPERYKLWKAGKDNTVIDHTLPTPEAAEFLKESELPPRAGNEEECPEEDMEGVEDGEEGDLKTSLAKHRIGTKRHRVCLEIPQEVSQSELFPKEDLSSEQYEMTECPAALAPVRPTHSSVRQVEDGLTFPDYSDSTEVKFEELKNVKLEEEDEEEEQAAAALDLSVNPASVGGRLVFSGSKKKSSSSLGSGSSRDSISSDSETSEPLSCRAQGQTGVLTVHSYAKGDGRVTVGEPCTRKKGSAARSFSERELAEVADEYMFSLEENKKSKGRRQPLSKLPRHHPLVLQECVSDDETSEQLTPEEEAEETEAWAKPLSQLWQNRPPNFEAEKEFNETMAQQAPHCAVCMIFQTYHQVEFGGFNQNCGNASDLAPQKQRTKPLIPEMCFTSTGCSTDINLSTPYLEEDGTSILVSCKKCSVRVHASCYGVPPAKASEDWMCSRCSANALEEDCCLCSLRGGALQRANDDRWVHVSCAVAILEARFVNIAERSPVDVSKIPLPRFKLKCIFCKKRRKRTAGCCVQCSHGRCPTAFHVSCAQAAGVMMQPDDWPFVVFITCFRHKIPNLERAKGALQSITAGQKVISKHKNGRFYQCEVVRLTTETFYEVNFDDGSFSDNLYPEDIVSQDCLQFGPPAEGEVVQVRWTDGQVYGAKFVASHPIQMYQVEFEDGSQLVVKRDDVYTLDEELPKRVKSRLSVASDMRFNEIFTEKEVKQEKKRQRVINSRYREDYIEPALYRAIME", "experiment": "biochemical", "parameters": "AlphaScreen peptide displacement assay, methyl-lysine reader domains", "conditions": "read-out: IC50 reader domains, AlphaScreen", "description": "as §1"}}, "data": [{"smiles": "CC(=O)N1c2ccccc2[C@@](C#N)(c2ccccc2)[C@@H]1c1cncc(CCCCCCCN2CCCC2)c1", "note": "[(S,S)-6]", "values": [{"measurement": "IC50", "setting": "[1]", "value": 0.19, "unit": "µM"}, {"measurement": "IC50", "setting": "[2]", "value": "> 20", "unit": "µM"}, {"measurement": "IC50", "setting": "[3]", "value": "> 20", "unit": "µM"}, {"measurement": "IC50", "setting": "[4]", "value": "> 20", "unit": "µM"}, {"measurement": "IC50", "setting": "[5]", "value": "> 20", "unit": "µM"}, {"measurement": "IC50", "setting": "[6]", "value": "> 20", "unit": "µM"}]}]}
